Data from US6875743B1, “Cell adhesion inhibitors” (Biogen, Inc., priority 1996, dated 2005).
Numbered stars: 1 amine (or outer) side, 2 acyl side, 3 side chain; on linkers, the order of the positions; unused ones are H or OH. Square brackets hold non-standard residues; d marks the D form. Peptide text beside a SMILES is read from it. * marks the point of attachment. ξ: configuration not given here. X4 = COc1nc(CC(=O)[*:2])ccc1N[*:1]; X5 = COc1cc(CC(=O)[*:2])ccc1N[*:1]; Quinaldoyl = O=C(c1ccc2ccccc2n1)*; NH(2-Me-phenyl) = Cc1ccccc1N*; Tic = O=C(O)[CH]1Cc2ccccc2CN1; Cha = N[CH](CC1CCCCC1)C(=O)O; Chg = N[CH](C(=O)O)C1CCCCC1; ξTic = O=C(O)C1Cc2ccccc2CN1; Nle = CCCC[CH](N)C(=O)O; Nva = CCC[CH](N)C(=O)O; PhAc = O=C(Cc1ccccc1)*; Boc = CC(C)(C)OC(=O)*; CO = O=C([*:1])[*:2]; ξNva = CCCC(N)C(=O)O; NHPh = c1ccc(N*)cc1

Biological target: T1, VLA4 (Homo sapiens, UniProt P05556+P13612)
T1 construct: endogenous in cells; host or cells: Ramos cells
T1 sequence (P13612 34-1032): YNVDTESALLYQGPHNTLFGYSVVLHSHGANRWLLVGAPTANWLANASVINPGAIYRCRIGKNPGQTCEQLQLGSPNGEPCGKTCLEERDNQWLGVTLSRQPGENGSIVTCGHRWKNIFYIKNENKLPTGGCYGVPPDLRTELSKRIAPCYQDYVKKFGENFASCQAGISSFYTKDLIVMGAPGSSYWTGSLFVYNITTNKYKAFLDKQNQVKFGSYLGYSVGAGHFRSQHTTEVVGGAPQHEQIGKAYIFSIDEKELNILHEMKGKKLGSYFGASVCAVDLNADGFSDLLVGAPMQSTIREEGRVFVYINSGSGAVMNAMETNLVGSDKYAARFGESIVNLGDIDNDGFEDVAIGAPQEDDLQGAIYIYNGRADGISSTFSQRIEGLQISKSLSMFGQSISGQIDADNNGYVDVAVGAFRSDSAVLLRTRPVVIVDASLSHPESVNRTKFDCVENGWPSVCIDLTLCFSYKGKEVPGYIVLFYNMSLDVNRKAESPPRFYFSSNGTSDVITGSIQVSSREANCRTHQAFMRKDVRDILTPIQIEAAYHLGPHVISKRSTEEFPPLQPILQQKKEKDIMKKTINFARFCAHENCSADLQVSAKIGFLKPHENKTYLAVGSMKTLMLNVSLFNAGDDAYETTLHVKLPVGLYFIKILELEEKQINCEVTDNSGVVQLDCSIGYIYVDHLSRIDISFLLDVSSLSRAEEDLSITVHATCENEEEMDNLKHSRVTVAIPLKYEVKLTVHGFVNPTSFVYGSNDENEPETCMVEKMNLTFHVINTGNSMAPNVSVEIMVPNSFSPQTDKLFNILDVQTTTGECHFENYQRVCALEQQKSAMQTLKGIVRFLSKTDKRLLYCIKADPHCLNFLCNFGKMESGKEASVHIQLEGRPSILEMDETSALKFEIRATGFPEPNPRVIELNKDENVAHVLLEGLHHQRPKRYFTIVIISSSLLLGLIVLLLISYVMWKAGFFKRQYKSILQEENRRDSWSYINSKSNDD
T1 sequence (P05556 21-798): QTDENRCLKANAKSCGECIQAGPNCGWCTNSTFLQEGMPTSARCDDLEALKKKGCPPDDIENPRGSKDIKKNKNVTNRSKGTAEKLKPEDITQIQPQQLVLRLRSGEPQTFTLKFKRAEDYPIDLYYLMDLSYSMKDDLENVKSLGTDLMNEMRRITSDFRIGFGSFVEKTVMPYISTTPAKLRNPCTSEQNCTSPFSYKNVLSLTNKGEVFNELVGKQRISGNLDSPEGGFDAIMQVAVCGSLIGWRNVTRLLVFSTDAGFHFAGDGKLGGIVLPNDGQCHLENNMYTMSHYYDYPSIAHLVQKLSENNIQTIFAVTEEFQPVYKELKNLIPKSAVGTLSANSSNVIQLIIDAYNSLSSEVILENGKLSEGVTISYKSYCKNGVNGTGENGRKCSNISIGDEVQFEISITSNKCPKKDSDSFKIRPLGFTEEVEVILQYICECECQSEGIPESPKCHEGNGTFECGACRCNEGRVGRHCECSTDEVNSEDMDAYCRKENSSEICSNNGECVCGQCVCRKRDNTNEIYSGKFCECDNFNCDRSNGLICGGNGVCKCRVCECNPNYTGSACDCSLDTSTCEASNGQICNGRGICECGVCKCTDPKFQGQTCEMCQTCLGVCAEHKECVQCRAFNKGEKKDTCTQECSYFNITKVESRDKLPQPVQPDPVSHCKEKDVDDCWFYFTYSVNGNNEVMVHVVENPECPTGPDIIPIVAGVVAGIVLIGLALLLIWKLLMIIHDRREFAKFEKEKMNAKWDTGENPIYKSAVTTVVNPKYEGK
Experiment: Inhibition of VLA4-dependent adhesion to BSA-CS1
Format: cell-based
Conditions: binding of BCECF-labelled Ramos cells to BSA-CS1 coated wells, 2 mM MnCl2; read-out: IC50
From the text: For example, the cell adhesion inhibitory activity of these compounds may be measured by determining the concentration of inhibitor required to block the binding of VLA-4-expressing cells to fibronectin- or CS1-coated plates. In this assay microtiter wells are coated with either fibronectin (containing the CS-1 sequence) or CS-1. If CS-1 is used, it must be conjugated to a carrier protein, such as bovine serum albumin, in order to bind to the wells. Once the wells are coated, varying concentrations of the test compound are then added together with appropriately labelled, VLA-4-expressing cells. Alternatively, the test compound may be added first and allowed to incubate with the coated wells prior to the addition of the cells. The cells are allowed to incubate in the wells for at least 30 minutes. Following incubation, the wells are emptied and washed. Inhibition of binding is measured by quantitating the fluorescence or radioactivity bound to the plate for each of the various concentrations of test compound, as well as for controls containing no test compound.
VLA-4-expressing cells that may be utilized in this assay include Ramos cells, Jurkat cells, A375 melanoma cells, as well as human peripheral blood lymophocytes (PBLs). The cells used in this assay may be fluorescently or radioactively labelled.
This assay was used to assess the potency of VLA4-directed inhibitory compounds of this invention.
We dissolved BSA-SMCC (Pierce Chemical, Rockford, Ill.; Catalog #77115) in H2O at a concentration of 10 mg/mL. [SEQ ID NO:4]: […](“Cys-Tyr-CS1 peptide”), which we synthesized by conventional solid phase chemistry and purified by HPLC, was dissolved in 10 mM HEPES pH 5, 50 mM NaCl and 0.1 mM EDTA also at a concentration of 10 mg/mL. We then mixed 500 μL of BSA-SMCC, 250 μL of Cys-Tyr-CS1 peptide and 75 μL of 1 mM HEPES pH 7.5 and allowed the conjugation reaction to proceed for 30 minutes. We stopped the reaction by adding 1 μL of beta-mercaptoethanol. Samples were analyzed for cross-linking by SDS-PAGE.
We coated the wells of a Linbro titertek polystyrene 96-well flat bottom plate (Flow Laboratories, Maclean, Va.; catalog #76-231-05) with 100 μL of the above-described BSA-CS1 solution diluted to 1 μg/mL in 0.05 M NaHCO3 (15 mM NaHCO3, 35 mM Na2CO3) pH 9.2. Some wells were not coated with CS1 in order to assess non-specific cell binding (NSB). The plate was then incubated overnight at 4° C.
Following this incubation, the contents of the wells were removed by inverting and blotting the plate. All of the wells were then blocked with 100 μL of 1% BSA in PBS, 0.02% NaN3, for a minimum of one hour at room temperature.
Ramos cells are grown, maintained and labelled in RPMI 1640 culture medium containing 1% BSA. Just prior to running the assay, we added 2′,7′-bis-(2-carboxyethyl)-5 (and -6) carboxyfluorescein acetoxymethyl ester (“BCECF-AM”; Molecular Probes Inc., Eugene, Oreg.; catalog #B-1150) to a final concentration of 2 μM to a culture of Ramos cells (4×10^6 cells/mL). We incubated the cells for 20 minutes at 37° C.
Following labelling, the cells were washed twice in assay buffer (24 mM TRIS, 137 mM NaCl, 2.7 mM KCl, pH 7.4, containing 0.1% BSA and 2 mM glucose) to remove any cations originating from the culture medium. The cells were then resuspended in assay buffer to 4×10^6 cells/mL and 2 mM MnCl2 was added to upregulate VLA4 on the surface of the cells.
Immediately prior to running the assay, we removed the BSA blocking solution from the 96-well plates and washed the wells with 100 μL of assay buffer. We then added to each well 25 μL of test cell adhesion inhibitory compound at 2× the final concentration and 25 μL of the labelled Ramos cells. […] Each concentration of compound was tested in triplicate. The compound and cells are allowed to incubate for 30 minutes at room temperature.

| Compound | IC50 [µM] |
| --- | --- |
| COc1cc(CC(=O)NC(CCSC)C(=O)NC(CC(=O)O)C(=O)NC(C(=O)N2CCCC2C(=O)O)C(C)C)ccc1NC(=O)Nc1ccccc1 (centres unmarked) [Compound 2] ({NHPh-CO}-[X5]MDVP-OH; configuration not given here) | < 0.05 |
| COc1nc(CC(=O)N[C@@H](CC(C)C)C(=O)N[C@@H](CC(=O)O)C(=O)N[C@H](C(=O)N2CCC[C@H]2C(=O)O)C(C)C)ccc1NC(=O)Nc1ccccc1C [Compound 4] ({NH(2-Me-phenyl)-CO}-[X4]LDVP-OH) | < 0.05 |
| CC(C)C[C@H](NC(=O)c1cc2ccccc2cn1)C(=O)NC(CC(=O)NO)C(=O)N[C@H](C(=O)O)C(C)C (some centres unmarked) [Compound 6] | > 10 |
| CC(C)C[C@H](NC(=O)c1cc2ccccc2cn1)C(=O)NC(Cc1nnn[nH]1)C(=O)N[C@H](C(=O)O)C(C)C (some centres unmarked) [Compound 10] | > 10 |
| CC(C)CC(NC(=O)C1Cc2ccccc2CN1)C(=O)NC(CC(=O)O)C(=O)O (stereo not drawn) [Compound 23] (H-[Tic]-Leu-Asp-OH; configuration not given here) | > 10 |
| CC(C)CC(NC(=O)CCc1ccccc1)C(=O)NC(CC(=O)O)C(=O)NCC1CCCCC1 (centres unmarked) [Compound 24] | > 10 |
| CC(C)CC(NC(=O)CCCc1ccccc1)C(=O)NC(CC(=O)O)C(=O)NCC1CCCCC1 (centres unmarked) [Compound 25] | > 10 |
| CC(C)CC(NC(=O)C1Cc2ccccc2CN1)C(=O)NC(CC(=O)O)C(=O)NC(C(=O)N1CCCC1C(=O)O)C(C)C (centres unmarked) [Compound 33] (H-[Tic]LDVP-OH; configuration not given here) | > 10 |
| COC(=O)C1CCCN1C(=O)C(NC(=O)C(CC(=O)O)NC(=O)C(CC(C)C)NC(=O)Cc1ccccc1)C(C)C (centres unmarked) [Compound 35] | 0.05 to 10 |
| CC(C)CC(NC(=O)CCc1ccc(O)cc1)C(=O)NC(CC(=O)O)C(=O)NC(C(=O)N1CCCC1C(=O)O)C(C)C (centres unmarked) [Compound 38] | > 10 |
| CCCCC(NC(=O)C(NC(=O)C(CC(=O)O)NC(=O)C(CC(C)C)NC(=O)c1ccc2ccccc2n1)C(C)C)C(=O)O (centres unmarked) [Compound 44] (Quinaldoyl-LDV[Nle]-OH; configuration not given here) | 0.05 to 10 |
| CCCC(NC(=O)C(CC(=O)O)NC(=O)C(CC(C)C)NC(=O)Cc1ccccc1)C(=O)NC (stereo not drawn) [Compound 51] (PhAc-Leu-Asp-[Nva]-NHMe; configuration not given here) | > 10 |
| CCC(C)C(NC(=O)C(CC(=O)O)NC(=O)C(CC(C)C)NC(=O)Cc1ccccc1)C(=O)OC (stereo not drawn) [Compound 54] (PhAc-Leu-Asp-Ile-OMe; configuration not given here) | > 10 |
| CCC(C)C(NC(=O)C(CC(=O)O)NC(=O)C(CC(C)C)NC(=O)Cc1ccccc1)C(=O)NC (stereo not drawn) [Compound 55] (PhAc-Leu-Asp-Ile-NHMe; configuration not given here) | > 10 |
| CC(C)[C@H](NC(=O)[C@H](CC(=O)O)NC(=O)C(C)(C)NC(=O)c1cc2ccccc2cn1)C(=O)O [Compound 82] | > 10 |
| CC(C)C(NC(=O)C(CC(=O)O)NC(=O)C(CC1CCCCC1)NC(=O)c1cc2ccccc2cn1)C(=O)O (centres unmarked) [Compound 85] | > 10 |
| CC(C)C[C@H](NC(=O)[C@H](CC(=O)O)NC(=O)[C@H](CC(C)C)NC(=O)C1Cc2ccccc2CN1)C(=O)O (some centres unmarked) [Compound 90] (H-[ξTic]LDL-OH) | > 10 |

More lines, now with the values ahead:

| IC50 [µM] | Compound |
| --- | --- |
| > 10 | Cc1ccccc1NC(=O)Nc1ccc(CC(=O)NC(CC(C)C)C(=O)N2CN(Cc3ccc4c(c3)OCO4)C(=O)C[C@H]2C(=O)O)cc1 (mixture of isomers) [Compound 363] |
| > 10 | CC(C)CC(NC(=O)c1cc2ccccc2cn1)C(=O)NC(CC(=O)O)C(=O)NCC1CCCCC1 (centres unmarked) [Compound 11] |
| > 10 | CC(C)CC(NC(=O)CCc1ccc(O)cc1)C(=O)NC(CC(=O)O)C(=O)NCC1CCCCC1 (centres unmarked) [Compound 14] |
| > 10 | CC[C@H](C)[C@H](NC(=O)CCc1ccc(O)cc1)C(=O)N[C@H](CC(=O)O)C(=O)NCC(C)C [Compound 16] |
| > 10 | CCC(C)C(NC(=O)CCc1ccc(O)cc1)C(=O)NC(CC(=O)O)C(=O)NCC(C)C (centres unmarked) [Compound 17] |
| > 10 | CC(C)CC(NC(=O)CCCCc1ccccc1)C(=O)NC(CC(=O)O)C(=O)NCC1CCCCC1 (centres unmarked) [Compound 26] |
| > 10 | COC(=O)C1CCCN1C(=O)C(NC(=O)C(CC(=O)O)NC(=O)C(CC(C)C)NC(=O)CCc1ccc(O)cc1)C(C)C (centres unmarked) [Compound 39] |
| 0.05 to 10 | CCCCC(NC(=O)C(NC(=O)C(CC(=O)O)NC(=O)C(CC(C)C)NC(=O)Cc1ccccc1)C(C)C)C(=O)O (centres unmarked) [Compound 43] (PhAc-LDV[Nle]-OH; configuration not given here) |
| > 10 | CCCC(NC(=O)Cc1ccccc1)C(=O)N[C@@H](CC(=O)O)C(=O)N[C@H](C(=O)NC)C(C)C (stereo partly drawn) [Compound 49] (PhAc-[ξNva]-Asp-Val-NHMe) |
| > 10 | CCCC(NC(=O)C(CC(=O)O)NC(=O)C(CC(C)C)NC(=O)c1ccc2ccccc2n1)C(=O)NC (centres unmarked) [Compound 52] |
| > 10 | CCC(C)C(NC(=O)C(CC(=O)O)NC(=O)C(CC(C)C)NC(=O)Cc1ccccc1)C(N)=O (stereo not drawn) [Compound 53] (PhAc-Leu-Asp-Ile-NH2; configuration not given here) |
| 0.05 to 10 | CCC(C)C(NC(=O)C(CC(=O)O)NC(=O)C(CC(C)C)NC(=O)c1ccc2ccccc2n1)C(=O)OC (centres unmarked) [Compound 56] |
| 0.05 to 10 | CCC(C)C(NC(=O)C(CC(=O)O)NC(=O)C(CC(C)C)NC(=O)c1ccc2ccccc2n1)C(=O)NC (centres unmarked) [Compound 57] |
| 0.05 to 10 | CCC(C)C(NC(=O)C(CC(=O)O)NC(=O)C(CC(C)C)NC(=O)C1CCc2ccccc2N1)C(=O)NC (centres unmarked) [Compound 58] |
| > 10 | CC(C)CC(NC(=O)C(Cc1ccc(O)cc1)NC(=O)OC(C)(C)C)C(=O)NC(CC(=O)O)C(=O)NC(C(=O)O)C(C)C (centres unmarked) [Compound 66] (Boc-YLDV-OH; configuration not given here) |
| > 10 | CC(C)C(NC(=O)C(CC(=O)O)NC(=O)C(NC(=O)c1cc2ccccc2cn1)C1CCCCC1)C(=O)O (centres unmarked) [Compound 83] |
| > 10 | CC(C)C(NC(=O)C(CC(=O)O)NC(=O)C(NC(=O)C1Cc2ccccc2CN1)C1CCCCC1)C(=O)O (centres unmarked) [Compound 84] (H-[Tic][Chg]DV-OH; configuration not given here) |
| > 10 | CC(C)C(NC(=O)C(CC(=O)O)NC(=O)C(CC1CCCCC1)NC(=O)C1Cc2ccccc2CN1)C(=O)O (centres unmarked) [Compound 86] (H-[Tic][Cha]DV-OH; configuration not given here) |
| > 10 | CC(C)C[C@H](NC(=O)CCCCc1ccccc1)C(=O)N[C@@H](CC(=O)O)C(=O)N[C@H](C(=O)O)C(C)C [Compound 98] |
| > 10 | COC(=O)C[C@H](NC(=O)[C@H](CC(C)C)N(C)CCCc1ccccc1)C(=O)N[C@H](C(=O)OC)C(C)C [Compound 112] |
| > 10 | CCCCCCNC(=O)C(NC(=O)C(CC(=O)O)NC(=O)C(CC(C)C)NC(=O)C1CCc2ccccc2N1)C(C)C (centres unmarked) [Compound 114] |
| > 10 | CCCCCCNC(=O)C(NC(=O)C(CC(=O)O)NC(=O)C(CC(C)C)NC(=O)CCc1ccc(O)cc1)C(C)C (centres unmarked) [Compound 119] |
| > 10 | CNC(=O)C(NC(=O)C(CC(=O)O)NC(=O)C(Cc1ccc(O)cc1)NC(=O)Cc1ccccc1)C(C)C (stereo not drawn) [Compound 129] (PhAc-Tyr-Asp-Val-NHMe; configuration not given here) |
| > 10 | CC(=O)N[C@@H](Cc1ccccc1)C(=O)N[C@@H](CC(C)C)C(=O)N[C@@H](CC(=O)O)C(=O)N[C@H](C(=O)O)C(C)C [Compound 152] (Ac-FLDV-OH) |
